In patent US20260053778A1, “USE OF NOVEL PPAR ACTIVITY MODULATOR FOR PREVENTION, AMELIORATION OR TREATMENT OF DEGENERATIVE BRAIN DISEASES” (POSTECH RESEARCH AND BUSINESS DEVELOPMENT FOUNDATION, priority 2022, published 2026):

What was measured:
[1] = system: 5×FAD Alzheimer's dementia-induced mice; test: qPCR of proinflammatory cytokines in brain tissue; type: in vivo, mouse; conditions: 5×FAD mice
Description: The gene expression levels of proinflammatory cytokines and related enzymes (II-1B, Il-6, and iNOS) in the brain tissues of the DTMB-administered and non-administered groups of 5×FAD Alzheimer's dementia-induced mice were confirmed by qPCR.

[2] = target: T1, PPARβ/δ (Homo sapiens, UniProt Q03181); test: GAL4-transactivation assay in HEK293A cells, PPARβ/δ; type: cell-based; conditions: GAL4 reporter, 24 h, compared with GW501516
T1 construct: expressed in transfected cells; host or cells: HEK293A
T1 sequence (Q03181 1-441): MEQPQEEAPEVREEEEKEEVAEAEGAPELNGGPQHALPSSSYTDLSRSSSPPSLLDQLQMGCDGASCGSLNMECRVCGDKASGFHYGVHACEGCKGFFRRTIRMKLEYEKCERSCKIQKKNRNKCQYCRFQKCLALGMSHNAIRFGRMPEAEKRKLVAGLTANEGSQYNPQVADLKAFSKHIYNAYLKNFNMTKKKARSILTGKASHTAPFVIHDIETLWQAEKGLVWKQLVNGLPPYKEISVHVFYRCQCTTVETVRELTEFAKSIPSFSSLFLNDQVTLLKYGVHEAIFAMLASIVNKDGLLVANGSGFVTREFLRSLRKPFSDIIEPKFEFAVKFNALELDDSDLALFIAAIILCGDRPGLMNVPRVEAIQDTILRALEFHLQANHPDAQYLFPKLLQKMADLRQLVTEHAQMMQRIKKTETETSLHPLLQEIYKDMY
Description: A GAL4-transactivation assay experiment was performed to determine whether the drug was bound to the PPAR ligand binding site. HEK293A cells were transfected with GAL4-reporter plasmid and pGL4.74 (Promega, Madison, WI, USA) as an internal standard via electroporation using the Neon Transfection System (Invitrogen, Carlsbad, CA, USA). All vectors were kindly provided by Professor Kanno Yuichiro, Toho University, Japan. After overnight culture, cells were treated with DTMB and each positive control compound for 24 h. Cells were then harvested, resuspended in luciferase lysis buffer (Promega), and incubated on ice for 10 min. Cell debris was removed by centrifugation at 20,000×g, 4° C. for 10 min, and the supernatant was used for the luciferase assay. Luciferase activity was measured using the Dual Luciferase Reporter Assay System (Promega) according to the manufacturer's instructions. In the measurement experiment, firefly luciferase activity was normalized to Renilla luciferase activity. To investigate the concentration-dependent effect of DTMB drug, EC50 values were measured by treating various concentrations of DTMB.

[3] = system: 5×FAD Alzheimer's dementia-induced mice; test: Y maze test in 5×FAD mice; type: in vivo, mouse; conditions: DTMB 10 mg/kg orally, 12 weeks
Description: 5×FAD (Tg6799) mice were purchased from Jackson Laboratory (Bar Harbor, ME, USA), and male transgenic mice were mated with B6/SJL hybrid female mice. Genotyping was performed by PCR analysis of tail-cut samples. In this example, 8-week-old female mice were used for drug administration, and wild-type littermates were used as controls. All procedures related to animal behavior experiments were approved by the Institutional Animal Care and Use Committee of Pohang University of Science and Technology (POSTECH IACUC). All animal experiments were performed in accordance with the principles of the Animal Welfare Act, the PHS Animal Welfare Policy, and the NIH Guide for the Care and Use of Laboratory Animals. All mice were maintained under general conditions in the POSTECH animal facility according to institutional guidelines.
To evaluate the effect of DTMB on 5×FAD mice, DTMB (10 mg/kg) and vehicle (1% carboxymethylcellulose and 10% DMSO) were orally administered to four groups (wild type, wild type+DTMB, 5×FAD, and 5×FAD+DTMB) 6 days per week for 3 months.
The measuring device consists of three branches, each of which is 42 cm long, 3 cm wide, and 12 cm high, and the angle at which the three branches folded is 120°. […] Alternation behavior is defined as entering all three branches without overlapping and was calculated using the following mathematical formula.

COc1ccc(-c2cc(=O)oc3c(C)c(OC(=O)[C@H](Cc4c[nH]c5ccccc45)NC(=O)OC(C)(C)C)ccc23)cc1 [DTMB, [4-(4-Methoxyphenyl)-8-methyl-2-oxochromen-7-yl](2S)-3-(1H-indol-3-yl)-2-[(2-methylpropan-2-yl)oxycarbonylamino]propanoate]
Expression level of Il-1β [1]: decreased
Expression level of Il-6 [1]: decreased
Expression level of iNOS [1]: decreased
PPARβ/δ activation versus positive control [2]: activated at a slightly higher concentration than GW501516 and rosiglitazone, respectively
Alternation behavior (Y maze) [3]: increased statistically significantly
